Earlier results, collected in patent US20150080442A1, “TRANSMUCOSAL DRUG DELIVERY SYSTEM” (PHARMACEUTICAL PRODUCTIONS INC., priority 2013, published 2015).

What was measured:
[1] = pH 6.8

Row | mean absolute oral bioavailability | Compound | nicotine in the free base form [1]
1 | approximately 40% | CN(C)CCc1c[nH]c2ccc(C[C@H]3COC(=O)N3)cc12 [Zolmitriptan] | –
2 | – | CN1CCCC1c1cccnc1 (centres unmarked) [nicotine] | about 10%
